Data reported in patent US20240132521A1, “COMPOUNDS AND METHODS FOR MODULATING HER2” (Iambic Therapeutics, Inc., priority 2022, published 2024).
pIC50: −log10 of the molar value.

Columns and labels:
BaF3_HER2WT cells = BaF3_HER2WT cells (Homo sapiens, UniProt P04626); experiment: Cell growth inhibition assay (CellTiterGlo), BaF3_HER2WT; format: cell-based; settings: 3-day treatment, CellTiterGlo, read-out: Cell growth inhibition activity, HER2 WT
wtEGFR = target: T1, wtEGFR (Homo sapiens, UniProt P00533); experiment: HotSpot radiometric kinase activity assay, wtEGFR; settings: biochemical activity, 4 nM wtEGFR, 10 μM 33P-ATP, 2 hours, read-out: EGFR WT IC50
T1 construct: purchased Invitrogen PR7295B
Protocol: (§1) The purpose of the wtERBB2, ERBB2-A775_G776insYVMA (ERBB2YVMA), wtEGFR biochemical assay was to evaluate the inhibition (% inhibition and IC50 values) of the small molecule inhibitors by using the “HotSpot” radiometric kinase activity assay. HotSpot assays monitor the production of kinase substrate by the radioactive gamma phosphate of adenosine triphosphate (33P-ATP) during biochemical reactions. HotSpot assays was performed in steps upon completion of the kinase reaction: deposition of a reaction mixture aliquot onto P81 ion exchange paper, extensive washing of the aforementioned P81 paper using phosphoric acid to remove unbound radiolabeled 33P-ATP from the P81 paper, and finally visualization and quantification of the dried P81 paper utilizing a phosphoimager. […] Typical reaction solutions (10 μL, final reaction volume) contained the following buffer conditions: 20 mM Hepes (pH 7.5), 10 mM MgCl2, 1 mM EGTA, 0.01% Brij35, 0.02 mg/mL BSA, 0.1 mM Na3VO4, 2 mM DTT, 1% DMSO. The assay was primed by preparing a fresh 0.2 mg/mL solution of pEY (Sigma Cat: P7244) substrate in the reaction buffer and supplementing that solution with […] of MnCl2 as substrate cofactor (Sigma Cat: M9522). The kinase of interest was then added to the solution at the appropriate concentration (30 nM wtERBB2 from, or 20 nM ERBB2YVMA, or 4 nM wtEGFR) and gently mixed prior to delivery of compound in 100% DMSO by acoustic dispensing (Beckman Echo550). Compound, Kinase, and substrate were allowed to incubate for 20 min at room temperature prior to the initiation of the reaction by addition of 33P-ATP (PerkinElmer Cat: NEG602, final conc 10 μM). […] IC50 determinations were made from a plot of kinase activity as a function of inhibitor concentration fit to the 4-parameter IC50 equation with the enzyme concentration held constant using GraphPad Prism (San Diego).

[1] = target: T2, ERBB2-A775_G776insYVMA (ERBB2YVMA) (Homo sapiens, UniProt P04626, INS775YVMA); experiment: HotSpot radiometric kinase activity assay, ERBB2YVMA; settings: biochemical activity, 20 nM ERBB2YVMA, 10 μM 33P-ATP, 2 hours, read-out: HER2 - YVMA IC50
T2 construct: purchased SignalChem E27-13BG
Protocol: as §1

wtERBB2 (Her2 WT) = target: T3, wtERBB2 (Her2 WT) (Homo sapiens, UniProt P04626); experiment: HotSpot radiometric kinase activity assay, wtERBB2; settings: biochemical activity, 30 nM wtERBB2, 10 μM 33P-ATP, 2 hours
T3 construct: purchased Reaction Biology Kin-21-497
Protocol: as §1

BaF3_EGFRWT cells = BaF3_EGFRWT cells (Homo sapiens, UniProt P00533); experiment: Cell growth inhibition assay (CellTiterGlo), BaF3_EGFRWT; format: cell-based; settings: 3-day treatment, CellTiterGlo, read-out: Cell growth inhibition activity, EGFR WT
BaF3_HER2YVMA cells = BaF3_HER2YVMA cells (Homo sapiens, UniProt P04626, DUP772-775, cells depend on it); experiment: Cell growth inhibition assay (CellTiterGlo), BaF3_HER2YVMA; format: cell-based; settings: 3-day treatment, CellTiterGlo, read-out: Cell growth inhibition activity, HER2 - YVMA
Chain of BaF3_HER2YVMA cells (P04626 with tags, fused parts or gaps DUP772-775): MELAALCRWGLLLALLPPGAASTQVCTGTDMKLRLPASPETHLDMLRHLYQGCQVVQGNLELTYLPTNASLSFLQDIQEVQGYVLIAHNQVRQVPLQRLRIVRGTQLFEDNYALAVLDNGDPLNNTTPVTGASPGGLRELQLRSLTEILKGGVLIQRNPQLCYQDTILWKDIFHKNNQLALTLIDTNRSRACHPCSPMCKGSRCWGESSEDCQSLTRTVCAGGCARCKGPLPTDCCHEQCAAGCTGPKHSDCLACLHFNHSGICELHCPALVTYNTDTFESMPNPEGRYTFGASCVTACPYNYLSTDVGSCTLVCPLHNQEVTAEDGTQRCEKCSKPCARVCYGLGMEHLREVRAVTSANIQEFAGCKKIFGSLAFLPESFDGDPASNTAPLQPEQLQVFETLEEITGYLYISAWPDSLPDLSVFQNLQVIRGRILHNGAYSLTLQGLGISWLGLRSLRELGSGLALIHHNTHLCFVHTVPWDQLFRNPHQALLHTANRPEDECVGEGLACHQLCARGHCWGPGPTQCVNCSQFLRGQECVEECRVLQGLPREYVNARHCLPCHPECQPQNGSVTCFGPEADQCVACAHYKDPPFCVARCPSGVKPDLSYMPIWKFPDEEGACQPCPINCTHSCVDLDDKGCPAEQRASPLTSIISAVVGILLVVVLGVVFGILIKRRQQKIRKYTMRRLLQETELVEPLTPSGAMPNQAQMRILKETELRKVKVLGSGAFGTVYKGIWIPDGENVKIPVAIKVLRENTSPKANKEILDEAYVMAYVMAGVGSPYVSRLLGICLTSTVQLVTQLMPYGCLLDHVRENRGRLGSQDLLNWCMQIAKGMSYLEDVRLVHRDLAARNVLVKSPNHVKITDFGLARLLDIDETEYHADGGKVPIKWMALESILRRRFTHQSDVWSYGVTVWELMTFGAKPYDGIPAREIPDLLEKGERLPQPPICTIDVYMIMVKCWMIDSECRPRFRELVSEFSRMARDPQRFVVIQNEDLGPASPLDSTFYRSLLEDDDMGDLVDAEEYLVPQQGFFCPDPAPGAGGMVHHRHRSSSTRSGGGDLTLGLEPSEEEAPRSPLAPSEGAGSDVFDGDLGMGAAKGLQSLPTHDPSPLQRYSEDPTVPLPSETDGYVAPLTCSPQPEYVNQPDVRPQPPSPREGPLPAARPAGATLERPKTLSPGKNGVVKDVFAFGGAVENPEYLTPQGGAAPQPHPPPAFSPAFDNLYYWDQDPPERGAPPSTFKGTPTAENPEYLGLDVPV

T3 sequence (P04626 23-1255): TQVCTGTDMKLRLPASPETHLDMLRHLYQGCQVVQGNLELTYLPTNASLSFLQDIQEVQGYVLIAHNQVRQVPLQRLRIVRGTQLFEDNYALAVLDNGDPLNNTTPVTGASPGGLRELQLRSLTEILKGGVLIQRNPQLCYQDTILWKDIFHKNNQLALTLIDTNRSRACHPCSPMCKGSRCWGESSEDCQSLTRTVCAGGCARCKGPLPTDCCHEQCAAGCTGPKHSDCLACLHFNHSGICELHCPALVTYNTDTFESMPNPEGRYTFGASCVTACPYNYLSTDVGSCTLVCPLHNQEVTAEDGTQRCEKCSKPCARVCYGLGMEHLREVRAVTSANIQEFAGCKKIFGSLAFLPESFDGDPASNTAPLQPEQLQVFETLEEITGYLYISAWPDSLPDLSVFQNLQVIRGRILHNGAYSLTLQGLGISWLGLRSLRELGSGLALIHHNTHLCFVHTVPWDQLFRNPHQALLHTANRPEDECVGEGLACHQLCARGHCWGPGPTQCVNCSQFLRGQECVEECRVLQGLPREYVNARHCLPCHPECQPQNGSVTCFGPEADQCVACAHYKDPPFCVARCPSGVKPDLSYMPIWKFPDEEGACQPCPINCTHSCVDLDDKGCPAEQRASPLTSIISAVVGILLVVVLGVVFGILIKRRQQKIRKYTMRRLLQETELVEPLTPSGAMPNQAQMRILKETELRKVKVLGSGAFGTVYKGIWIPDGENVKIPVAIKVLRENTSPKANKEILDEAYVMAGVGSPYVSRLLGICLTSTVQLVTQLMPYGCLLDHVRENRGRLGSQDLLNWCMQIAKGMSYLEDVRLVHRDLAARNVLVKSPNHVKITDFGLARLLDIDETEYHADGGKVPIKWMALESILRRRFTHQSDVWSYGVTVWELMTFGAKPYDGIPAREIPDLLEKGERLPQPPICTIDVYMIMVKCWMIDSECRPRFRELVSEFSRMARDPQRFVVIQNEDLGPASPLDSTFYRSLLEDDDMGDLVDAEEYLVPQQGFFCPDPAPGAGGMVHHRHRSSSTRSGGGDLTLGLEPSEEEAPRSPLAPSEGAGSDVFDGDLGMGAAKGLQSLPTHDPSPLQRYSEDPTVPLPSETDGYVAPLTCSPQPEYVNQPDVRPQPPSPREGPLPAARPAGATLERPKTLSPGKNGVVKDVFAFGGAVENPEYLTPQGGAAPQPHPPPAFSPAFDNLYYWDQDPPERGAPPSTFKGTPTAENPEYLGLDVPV
T1 sequence (P00533 25-1210): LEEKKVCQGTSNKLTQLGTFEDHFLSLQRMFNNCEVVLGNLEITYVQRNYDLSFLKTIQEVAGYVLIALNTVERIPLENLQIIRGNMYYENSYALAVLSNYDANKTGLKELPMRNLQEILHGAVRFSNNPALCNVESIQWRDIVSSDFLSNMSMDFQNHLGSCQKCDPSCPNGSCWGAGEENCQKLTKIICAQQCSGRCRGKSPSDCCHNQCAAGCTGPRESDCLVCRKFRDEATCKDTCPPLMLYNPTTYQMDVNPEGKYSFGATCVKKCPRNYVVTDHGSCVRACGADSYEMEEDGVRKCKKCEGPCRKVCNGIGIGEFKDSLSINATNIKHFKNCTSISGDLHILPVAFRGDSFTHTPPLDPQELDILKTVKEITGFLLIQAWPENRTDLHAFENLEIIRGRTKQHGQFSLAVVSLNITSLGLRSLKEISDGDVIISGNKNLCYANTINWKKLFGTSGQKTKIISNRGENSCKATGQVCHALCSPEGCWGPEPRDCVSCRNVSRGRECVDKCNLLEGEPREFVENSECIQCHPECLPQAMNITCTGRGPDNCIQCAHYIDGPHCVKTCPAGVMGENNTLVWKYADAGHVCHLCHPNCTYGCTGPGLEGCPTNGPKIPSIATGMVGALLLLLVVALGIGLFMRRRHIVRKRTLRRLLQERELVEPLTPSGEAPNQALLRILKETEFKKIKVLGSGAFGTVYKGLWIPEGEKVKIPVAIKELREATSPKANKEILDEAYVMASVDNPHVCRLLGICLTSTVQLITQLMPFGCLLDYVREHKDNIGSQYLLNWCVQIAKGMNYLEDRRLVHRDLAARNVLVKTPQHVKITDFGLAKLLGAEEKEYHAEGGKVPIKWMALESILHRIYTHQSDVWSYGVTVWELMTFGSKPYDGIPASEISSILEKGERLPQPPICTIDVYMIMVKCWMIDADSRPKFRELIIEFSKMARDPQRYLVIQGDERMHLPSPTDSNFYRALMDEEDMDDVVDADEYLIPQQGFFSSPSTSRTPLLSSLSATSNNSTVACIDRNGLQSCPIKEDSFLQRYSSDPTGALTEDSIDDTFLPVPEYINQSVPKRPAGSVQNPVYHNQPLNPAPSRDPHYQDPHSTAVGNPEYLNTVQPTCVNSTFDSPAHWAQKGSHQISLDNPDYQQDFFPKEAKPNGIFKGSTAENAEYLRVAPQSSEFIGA
T2 sequence (P04626 with tags, fused parts or gaps INS775YVMA limits assumed): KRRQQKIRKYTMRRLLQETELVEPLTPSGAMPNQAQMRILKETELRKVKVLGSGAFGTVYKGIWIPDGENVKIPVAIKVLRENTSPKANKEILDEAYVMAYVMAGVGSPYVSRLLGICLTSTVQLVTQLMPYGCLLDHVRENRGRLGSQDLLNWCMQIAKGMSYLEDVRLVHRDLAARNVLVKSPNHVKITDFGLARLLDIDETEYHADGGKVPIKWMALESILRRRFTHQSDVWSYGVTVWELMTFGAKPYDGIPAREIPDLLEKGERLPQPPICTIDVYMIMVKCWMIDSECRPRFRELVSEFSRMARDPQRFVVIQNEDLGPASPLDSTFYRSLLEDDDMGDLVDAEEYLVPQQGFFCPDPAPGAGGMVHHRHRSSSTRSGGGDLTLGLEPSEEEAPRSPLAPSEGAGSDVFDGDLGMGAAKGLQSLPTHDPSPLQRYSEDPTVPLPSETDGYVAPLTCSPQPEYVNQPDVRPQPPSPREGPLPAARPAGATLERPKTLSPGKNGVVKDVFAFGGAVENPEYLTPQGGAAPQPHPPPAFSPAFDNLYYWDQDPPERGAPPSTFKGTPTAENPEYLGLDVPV

| SMILES | GI50 (BaF3_HER2WT cells) | pIC50 (wtEGFR) | pIC50 [1] | pIC50 (wtERBB2 (Her2 WT)) | GI50 (BaF3_EGFRWT cells) | GI50 (BaF3_HER2YVMA cells) |
| --- | --- | --- | --- | --- | --- | --- |
| C=CC(=O)NC1CCN(C(=O)c2ccn3ncnc(Nc4ccc(Oc5ccn6ncnc6c5)c(C)c4)c23)C1 (stereo not shown) [Example 4, N-(1-(4-((4-([1,2,4]triazolo[1,5-a]pyridin-7-yloxy)-3-methylphenyl)amino)pyrrolo[2,1-f][1,2,4]triazine-5-carbonyl)pyrrolidin-3-yl)acrylamide] | < 0.2 µM | 5.30 to 5.82 | > 6.70 | > 6.70 | 1.5 to 5 µM | < 0.2 µM |
| Cc1cc(Nc2c(C#N)cnn3ccc(C4CN(C(=O)/C=C/CN(C)C)C4)c23)ccc1Oc1ccn2ncnc2c1 [Example 86, (E)-4-((4-([1,2,4]triazolo[1,5-a]pyridin-7-yloxy)-3-methylphenyl)amino)-5-(1-(4-(dimethylamino)-but-2-enoyl)azetidin-3-yl)pyrrolo[1,2-b]pyridazine-3-carbonitrile] | 1.5 to 5 µM | 5.30 to 5.82 | 5.30 to 5.82 | 5.30 to 5.82 | 1.5 to 5 µM | > 5 µM |
| Cc1cc(Nc2ncnn3cnc(C4CCN(C(=O)/C=C/CN(C)C)CC4)c23)ccc1Oc1ccn2ncnc2c1 [Example 88, (E)-1-(4-(4-((4-([1,2,4]triazolo[1,5-a]pyridin-7-yloxy)-3-methylphenyl)amino)imidazo[5,1-f][1,2,4]triazin-5-yl)piperidin-1-yl)-4-(dimethylamino)but-2-en-1-one] | 0.5 to 1.5 µM | 5.30 to 5.82 | 5.82 to 6.30 | 6.30 to 6.70 | 1.5 to 5 µM | 1.5 to 5 µM |
| CN(C)C/C=C/C(=O)N1CC(c2ccn3ncnc(Nc4cnc(Oc5cccc(C(F)(F)F)c5)c(Cl)c4)c23)C1 [Example 90, (E)-1-(3-(4-((5-chloro-6-(3-(trifluoromethyl)phenoxy)pyridin-3-yl)amino)pyrrolo[2,1-f][1,2,4]triazin-5-yl)azetidin-1-yl)-4-(dimethylamino)but-2-en-1-one] | 1.5 to 5 µM | 5.30 to 5.82 | 5.30 to 5.82 | 5.30 to 5.82 | 1.5 to 5 µM | 1.5 to 5 µM |
| Cc1cc(Nc2ncnn3ccc(C4CN(C(=O)/C=C/CN5CCC5)C4)c23)ccc1Oc1ccn2ncnc2c1 [Example 102, (E)-1-(3-(4-((4-([1,2,4]triazolo[1,5-a]pyridin-7-yloxy)-3-methylphenyl)amino)pyrrolo[2,1-f][1,2,4]triazin-5-yl)azetidin-1-yl)-4-(azetidin-1-yl)but-2-en-1-one] | 0.5 to 1.5 µM | 5.30 to 5.82 | > 6.70 | – | 1.5 to 5 µM | 1.5 to 5 µM |
| Cc1cc(Nc2ncnn3ccc(-c4cnn(CCNC(=O)/C=C/CN(C)C)c4)c23)ccc1Oc1ccn2ncnc2c1 [Example 103, (E)-N-(2-(4-(4-((4-([1,2,4]triazolo[1,5-a]pyridin-7-yloxy)-3-methylphenyl)amino)pyrrolo[2,1-f][1,2,4]triazin-5-yl)-1H-pyrazol-1-yl)ethyl)-4-(dimethylamino)but-2-enamide] | 1.5 to 5 µM | 5.30 to 5.82 | 6.30 to 6.70 | – | 1.5 to 5 µM | 1.5 to 5 µM |
| C=CC(=O)N1CCC2(C1)CN(c1ccn3ncnc(Nc4ccc(Oc5ccn6ncnc6c5)c(C)c4)c13)C2 [Example 155, 1-(2-{4-[(3-methyl-4-{[1,2,4]triazolo[1,5-a]pyridin-7-yloxy}phenyl)amino]pyrrolo[2,1-f][1,2,4]triazin-5-yl}-2,6-diazaspiro[3.4]octan-6-yl)prop-2-en-1-one] | < 0.2 µM | 5.30 to 5.82 | > 6.70 | – | 1.5 to 5 µM | 0.2 to 0.5 µM |
| Cc1cc(Nc2ncnn3ccc(C(=O)NCCCN(C)C)c23)ccc1Oc1ccn2ncnc2c1 [Example 178, 4-((4-([1,2,4]triazolo[1,5-a]pyridin-7-yloxy)-3-methylphenyl)amino)-N-(3-(dimethylamino)-propyl)pyrrolo[2,1-f][1,2,4]triazine-5-carboxamide] | 0.2 to 0.5 µM | 5.82 to 6.30 | > 6.70 | – | > 5 µM | 1.5 to 5 µM |

The remaining lines, values ahead:

| GI50 (BaF3_HER2WT cells) | pIC50 (wtEGFR) | pIC50 [1] | pIC50 (wtERBB2 (Her2 WT)) | GI50 (BaF3_EGFRWT cells) | GI50 (BaF3_HER2YVMA cells) | SMILES |
| --- | --- | --- | --- | --- | --- | --- |
| < 0.2 µM | 6.30 to 6.70 | > 6.70 | – | 1.5 to 5 µM | < 0.2 µM | Cc1cc(Nc2ncnn3ccc(C4CCCN(C(=O)/C=C/CN(C)C)CC4)c23)ccc1Oc1ccn2ncnc2c1 (stereo not shown) [Example 93, (E)-1-(4-(4-((4-([1,2,4]triazolo[1,5-a]pyridin-7-yloxy)-3-methylphenyl)amino)pyrrolo[2,1-f][1,2,4]triazin-5-yl)azepan-1-yl)-4-(dimethylamino)but-2-en-1-one] |
| 0.2 to 0.5 µM | 6.30 to 6.70 | > 6.70 | – | 1.5 to 5 µM | 0.5 to 1.5 µM | Cc1cc(Nc2ncnn3ccc(C4CC5(C4)CN(C(=O)/C=C/CN(C)C)C5)c23)ccc1Oc1ccn2ncnc2c1 [Example 95, (E)-1-(6-(4-((4-([1,2,4]triazolo[1,5-a]pyridin-7-yloxy)-3-methylphenyl)amino)pyrrolo[2,1-f][1,2,4]triazin-5-yl)-2-azaspiro[3.3]heptan-2-yl)-4-(dimethylamino)but-2-en-1-one] |
| < 0.2 µM | 5.82 to 6.30 | > 6.70 | – | 1.5 to 5 µM | 0.5 to 1.5 µM | Cc1cc(Nc2ncnn3ccc(C4CCCN(C(=O)/C=C/CN(C)C)C4)c23)ccc1Oc1ccn2ncnc2c1 (stereo not shown) [Example 96, (E)-1-(3-(4-((4-([1,2,4]triazolo[1,5-a]pyridin-7-yloxy)-3-methylphenyl)amino)-pyrrolo-[2,1-f][1,2,4]-triazin-5-yl)piperidin-1-yl)-4-(dimethylamino)but-2-en-1-one] |
| 0.2 to 0.5 µM | 5.82 to 6.30 | > 6.70 | – | 1.5 to 5 µM | 1.5 to 5 µM | Cc1cc(Nc2ncnn3ccc(N4CC5(CCN(C(=O)/C=C/CN(C)C)C5)C4)c23)ccc1Oc1ccn2ncnc2c1 [Example 156, (2E)-4-(dimethylamino)-1-(2-{4-[(3-methyl-4-{[1,2,4]triazolo[1,5-a]pyridin-7-yloxy}phenyl)amino]pyrrolo[2,1-f][1,2,4]triazin-5-yl}-2,6-diazaspiro[3.4]octan-6-yl)but-2-en-1-one] |
